This passage reports AFI and FI50 results from ChEMBL document CHEMBL3046156, “Neoclerodane diterpenoids from Teucrium polium subsp. polium and their antifeedant activity” (2003).

In experiment [1] the test system is Spodoptera littoralis. The experiment can be described thus: Antifeedant activity against Spodoptera littoralis assessed as antifeedant index at 100 ppm by binary choice bioassay. It is filed as functional.
Experiment [2] deals with Spodoptera littoralis. The experiment can be described thus: Antifeedant activity against Spodoptera littoralis by binary choice bioassay. It is filed as functional.

Take `CC(=O)OC[C@@]12C(=O)[C@H]3O[C@H](O)[C@](C[C@H](OC(C)=O)c4ccoc4)([C@@H]3C)[C@H]1CCC[C@]21CO1` [AUROPOLIN]: the AFI in experiment [1] came out at 17.8%.

For `CC(=O)OC[C@@]12C(=O)[C@H]3OC(=O)[C@@](C[C@H](OC(C)=O)c4ccoc4)(C1CCC[C@]21CO1)[C@@H]3C` (stereo partly specified), the FI50 in experiment [2] came out at 230 ppm. In addition, in experiment [1], the AFI was 6.9%.

Take `CC(=O)OC[C@@]12C(=O)[C@@H](OC(C)=O)[C@@H](C)[C@]3(C[C@@H](c4ccoc4)OC3=O)[C@H]1CCC[C@]21CO1` [CAPITATIN]: the AFI in experiment [1] came to 31%.

`CC(=O)OC[C@@]12C(=O)[C@H]3O[C@H](OC(C)=O)[C@](C[C@H](OC(C)=O)c4ccoc4)([C@@H]3C)[C@H]1CCC[C@]21CO1` [ACETYL-AUROPOLIN] had an FI50 in experiment [2] of 90 ppm. In experiment [1], the AFI came to 57.8%.
